This note sets out measurements from article PMC7588595, “Small-molecule active pharmaceutical ingredients of approved cancer therapeutics inhibit human aspartate/asparagine-β-hydroxylase” (Bioorganic & Medicinal Chemistry, 2020).

The target in the assay is T1, human AspH (His6-AspH315–758) (Homo sapiens, UniProt Q12797).
T1 construct: N-Terminally His6-tagged human AspH315–758 (His6-AspH315–758) was produced in Escherichia coli BL21 (DE3) cells; made in house; host or cells: Escherichia coli BL21 (DE3), pET-28a(+) vector
T1 sequence (Q12797 315-758): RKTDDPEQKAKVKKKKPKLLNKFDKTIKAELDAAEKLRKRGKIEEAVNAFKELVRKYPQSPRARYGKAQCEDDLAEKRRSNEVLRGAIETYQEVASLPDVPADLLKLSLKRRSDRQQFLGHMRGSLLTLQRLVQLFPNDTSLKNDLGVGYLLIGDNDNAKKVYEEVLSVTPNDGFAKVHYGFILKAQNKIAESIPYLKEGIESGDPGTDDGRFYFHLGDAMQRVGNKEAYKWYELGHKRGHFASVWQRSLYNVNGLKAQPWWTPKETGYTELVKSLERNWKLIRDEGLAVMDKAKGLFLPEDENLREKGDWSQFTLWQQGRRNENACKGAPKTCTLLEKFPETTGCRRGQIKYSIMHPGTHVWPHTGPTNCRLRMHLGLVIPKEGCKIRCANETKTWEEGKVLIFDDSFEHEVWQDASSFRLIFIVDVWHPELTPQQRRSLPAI
Nature of the assay: SPE-MS AspH inhibition assay (hFX-CP101-119 substrate hydroxylation). It counts as biochemical.

[1] abbreviates: AspH-inhibitor screening, 384-well Plate 1.
Setting [2] is: AspH-inhibitor screening, 384-well Plate 1, substrate conversion.
Where [3] appears, read: AspH-inhibitor screening, Plate 1-duplicate.
[4] abbreviates: AspH-inhibitor screening, Plate 1-duplicate, substrate conversion.

Where a name gives a salt, the structure may show the parent alone. Read-outs that look alike come from different tables or passages of the source.

With `C/C(=C\c1csc(C)n1)[C@@H]1C[C@@H]2O[C@]2(C)CCC[C@H](C)[C@H](O)[C@@H](C)C(=O)C(C)(C)[C@@H](O)CC(=O)O1` [Epothilone B (Patupilone)], the “Plate 1 (% inhibition)” value under setting [1] was -5.33%. The “Plate 1 (% conversion)” value under setting [2] is on record as 52.21%. For the same compound, under setting [3], the “Plate 1-duplicate (% inhibition)” value was -7.34%. Moreover, under setting [4], the “Plate 1-duplicate (% conversion)” value is given as 55.68%.
Turning to `Cc1c(C(=O)Nc2ccc(N3C[C@@H](C)O[C@@H](C)C3)nc2)cccc1-c1ccc(OC(F)(F)F)cc1` [Erismodegib], the “Plate 1 (% inhibition)” value under setting [1] is -2.59%. The “Plate 1 (% conversion)” value under setting [2] stood at 50.95%. The “Plate 1-duplicate (% inhibition)” value under setting [3] is listed as -6.71%. Moreover, the “Plate 1-duplicate (% conversion)” value under setting [4] is 55.37%.
Take `C#Cc1cccc(Nc2ncnc3cc(OCCOC)c(OCCOC)cc23)c1` [Erlotinib hydrochloride]: the “Plate 1 (% inhibition)” value under setting [1] was -99.93%. Besides, under setting [2], the “Plate 1 (% conversion)” value was found to be 95.90%. In addition, the “Plate 1-duplicate (% inhibition)” value under setting [3] is reported as -12.97%. The “Plate 1-duplicate (% conversion)” value under setting [4] worked out at 58.47%.
For `C[C@]12CC[C@@H]3c4ccc(OC(=O)N(CCCl)CCCl)cc4CC[C@H]3[C@@H]1CC[C@@H]2OP(=O)(O)O` [Estramustine sodium phosphate], the “Plate 1 (% conversion)” value is 17.18%, the “Plate 1 (% inhibition)” value turned out to be 70.54%, the “Plate 1-duplicate (% conversion)” value stood at 20.11% and the “Plate 1-duplicate (% inhibition)” value was 64.39%.
Regarding `COc1cc([C@@H]2c3cc4c(cc3[C@@H](O[C@@H]3O[C@@H]5CO[C@@H](C)O[C@H]5[C@H](O)[C@H]3O)[C@H]3COC(=O)[C@H]23)OCO4)cc(OC)c1O` [Etoposide], the “Plate 1 (% inhibition)” value under setting [1] is given as -0.43%. In addition, under setting [2], the “Plate 1 (% conversion)” value is reported as 49.95%. Moreover, the “Plate 1-duplicate (% inhibition)” value under setting [3] is -2.73%. Moreover, the “Plate 1-duplicate (% conversion)” value under setting [4] is given as 53.40%.
For `CO[C@H]1C[C@@H]2CC[C@@H](C)[C@@](O)(O2)C(=O)C(=O)N2CCCC[C@H]2C(=O)O[C@H]([C@H](C)C[C@@H]2CC[C@@H](OCCO)[C@H](OC)C2)CC(=O)[C@H](C)/C=C(\C)[C@@H](O)[C@@H](OC)C(=O)[C@H](C)C[C@H](C)/C=C/C=C/C=C/1C` [Everolimus], in that order: -18.20%, 58.15%, -27.79% and 65.82%.
In the same order, the values of `C=C1C[C@@H]2[C@H](CC[C@]3(C)C(=O)CC[C@@H]23)[C@@]2(C)C=CC(=O)C=C12` [Exemestane] are -2.81%, 51.05%, 2.16% and 50.97%.
For the compound `C=CC[C@@H]1/C=C(\C)C[C@H](C)C[C@H](OC)[C@H]2O[C@@](O)(C(=O)C(=O)N3CCCC[C@H]3C(=O)O[C@H](/C(C)=C/[C@@H]3CC[C@@H](O)[C@H](OC)C3)[C@H](C)[C@@H](O)CC1=O)[C@H](C)C[C@@H]2OC.O` [FK 506_Tacrolimus], the “Plate 1 (% inhibition)” value under setting [1] is listed as -2.23%. In addition, the “Plate 1 (% conversion)” value under setting [2] came out at 50.78%. The “Plate 1-duplicate (% inhibition)” value under setting [3] is listed as -2.68%. Moreover, under setting [4], the “Plate 1-duplicate (% conversion)” value came to 53.37%.
`Cl.O=C(/C=C/c1cccnc1)NCCCCC1CCN(C(=O)c2ccccc2)CC1` [FK-866 HCl_Daporinad]: the “Plate 1 (% inhibition)” value under setting [1] was determined as 2.15%. Further, the “Plate 1 (% conversion)” value under setting [2] came out at 48.76%. Moreover, under setting [3], the “Plate 1-duplicate (% inhibition)” value is -6.78%. In addition, under setting [4], the “Plate 1-duplicate (% conversion)” value is given as 55.40%.
For `CC(C)(C)NC(=O)[C@H]1CC[C@H]2[C@@H]3CC[C@H]4NC(=O)C=C[C@]4(C)[C@H]3CC[C@]12C` [Finasteride], in that order: -3.25%, 51.25%, 5.03% and 49.55%.
As for `O=c1[nH]c(=O)n([C@H]2C[C@H](O)[C@@H](CO)O2)cc1F` [Floxuridine], under setting [1], the “Plate 1 (% inhibition)” value amounted to 0.74%. Besides, under setting [2], the “Plate 1 (% conversion)” value amounted to 49.41%. Moreover, the “Plate 1-duplicate (% inhibition)” value under setting [3] is recorded as 5.87%. In addition, the “Plate 1-duplicate (% conversion)” value under setting [4] is recorded as 49.13%.
On to `Nc1nc(F)nc2c1ncn2[C@@H]1O[C@H](COP(=O)(O)O)[C@@H](O)[C@@H]1O` [Fludarabine phosphate], for which the “Plate 1 (% inhibition)” value under setting [1] came out at 5.12%. Further, under setting [2], the “Plate 1 (% conversion)” value was determined as 47.39%. Also, under setting [3], the “Plate 1-duplicate (% inhibition)” value was 1.33%. Besides, under setting [4], the “Plate 1-duplicate (% conversion)” value was found to be 51.38%.
For `O=c1[nH]cc(F)c(=O)[nH]1` [Fluorouracil], under setting [1], the “Plate 1 (% inhibition)” value was determined as 7.47%. Moreover, under setting [2], the “Plate 1 (% conversion)” value was found to be 46.30%. For the same compound, the “Plate 1-duplicate (% inhibition)” value under setting [3] worked out at 5.36%. The “Plate 1-duplicate (% conversion)” value under setting [4] is recorded as 49.38%.
Regarding `CC(C)C(=O)Nc1ccc([N+](=O)[O-])c(C(F)(F)F)c1` [Flutamide], the “Plate 1 (% inhibition)” value under setting [1] amounted to 0.33%. Further, under setting [2], the “Plate 1 (% conversion)” value stood at 49.60%. Further, the “Plate 1-duplicate (% inhibition)” value under setting [3] was determined as 10.24%. Also, under setting [4], the “Plate 1-duplicate (% conversion)” value came out at 46.97%.
On to `C[C@]12CC[C@@H]3c4ccc(O)cc4C[C@@H](CCCCCCCCC[S+]([O-])CCCC(F)(F)C(F)(F)F)[C@H]3[C@@H]1CC[C@@H]2O` (some centres unmarked) [Fulvestrant], for which the “Plate 1 (% inhibition)” value under setting [1] came out at 40.68%. In addition, the “Plate 1 (% conversion)” value under setting [2] amounted to 30.96%. Besides, the “Plate 1-duplicate (% inhibition)” value under setting [3] stood at 22.43%. Also, the “Plate 1-duplicate (% conversion)” value under setting [4] is listed as 40.92%.
On to `CC(C)NC[C@@H](C(=O)N1CCN(c2ncnc3c2[C@H](C)C[C@H]3O)CC1)c1ccc(Cl)cc1` [GDC-0068], for which, under setting [1], the “Plate 1 (% inhibition)” value was -1.30%. The “Plate 1 (% conversion)” value under setting [2] amounted to 50.35%. Further, the “Plate 1-duplicate (% inhibition)” value under setting [3] is 4.48%. Further, the “Plate 1-duplicate (% conversion)” value under setting [4] turned out to be 49.82%.
For `CS(=O)(=O)N1CCN(Cc2cc3nc(-c4cccc5[nH]ncc45)nc(N4CCOCC4)c3s2)CC1` [GDC-0941_Pictilisib], under setting [1], the “Plate 1 (% inhibition)” value was determined as 1.37%. Further, under setting [2], the “Plate 1 (% conversion)” value is on record as 49.12%. Further, the “Plate 1-duplicate (% inhibition)” value under setting [3] is recorded as 2.57%. Besides, the “Plate 1-duplicate (% conversion)” value under setting [4] amounted to 50.77%.
In the case of `Cc1c(CN2CCN(C(=O)[C@H](C)O)CC2)sc2c(N3CCOCC3)nc(-c3cnc(N)nc3)nc12` [GDC-0980], under setting [1], the “Plate 1 (% inhibition)” value is 2.44%. For the same compound, under setting [2], the “Plate 1 (% conversion)” value is given as 48.62%. The “Plate 1-duplicate (% inhibition)” value under setting [3] is 1.54%. Further, the “Plate 1-duplicate (% conversion)” value under setting [4] turned out to be 51.28%.
With `CC(=O)Nc1cccc(-n2c(=O)n(C3CC3)c(=O)c3c(Nc4ccc(I)cc4F)n(C)c(=O)c(C)c32)c1` [GSK1120212_Trametinib], under setting [1], the “Plate 1 (% inhibition)” value was -0.37%. Besides, under setting [2], the “Plate 1 (% conversion)” value was 49.92%. Further, under setting [3], the “Plate 1-duplicate (% inhibition)” value was -2.41%. The “Plate 1-duplicate (% conversion)” value under setting [4] is on record as 53.24%.
In the same order, the values of `COc1ncc(-c2ccc3nccc(-c4ccnnc4)c3c2)cc1NS(=O)(=O)c1ccc(F)cc1F` [GSK2126458] are 8.17%, 45.98%, 17.15% and 43.54%.
In the case of `Cc1c(Cn2c(C)nc3c(C(=O)O)cc(N4CCOCC4)cc32)cccc1C(F)(F)F` [GSK2636771], under setting [1], the “Plate 1 (% inhibition)” value was -0.51%. Moreover, the “Plate 1 (% conversion)” value under setting [2] stood at 49.98%. The “Plate 1-duplicate (% inhibition)” value under setting [3] was found to be 13.40%. The “Plate 1-duplicate (% conversion)” value under setting [4] is reported as 45.39%.
In the case of `CCn1c(-c2nonc2N)nc2cnc(Oc3cccc(NC(=O)c4ccc(OCCN5CCOCC5)cc4)c3)cc21` [GSK 269962], the “Plate 1 (% inhibition)” value under setting [1] is recorded as -27.40%. Besides, under setting [2], the “Plate 1 (% conversion)” value is on record as 62.40%. In addition, the “Plate 1-duplicate (% inhibition)” value under setting [3] is -34.23%. The “Plate 1-duplicate (% conversion)” value under setting [4] worked out at 69.02%.
Turning to `O=C(O)c1ccc(-c2c[nH]c3ncc(-c4ccccc4)cc23)cc1C1CCCC1` [GSK 650394], under setting [1], the “Plate 1 (% inhibition)” value was determined as 57.76%. The “Plate 1 (% conversion)” value under setting [2] was 23.08%. The “Plate 1-duplicate (% inhibition)” value under setting [3] amounted to 56.10%. Further, the “Plate 1-duplicate (% conversion)” value under setting [4] came to 24.22%.
For `C[C@@H]1C=C2C(=O)O[C@@H]3CC[C@H](C1)[C@]23O` [Galiellalactone], under setting [1], the “Plate 1 (% inhibition)” value came to 15.61%. Besides, the “Plate 1 (% conversion)” value under setting [2] is 42.54%. The “Plate 1-duplicate (% inhibition)” value under setting [3] was 8.63%. Moreover, under setting [4], the “Plate 1-duplicate (% conversion)” value is listed as 47.76%.
For `COc1cc2ncnc(Nc3ccc(F)c(Cl)c3)c2cc1OCCCN1CCOCC1` [Gefitinib], in that order: -37.34%, 66.99%, -37.51% and 70.65%.
With `Nc1ccn([C@@H]2O[C@H](CO)[C@@H](O)C2(F)F)c(=O)n1` [Gemcitabine hydrochloride], under setting [1], the “Plate 1 (% inhibition)” value came to 1.09%. Further, the “Plate 1 (% conversion)” value under setting [2] is recorded as 49.25%. The “Plate 1-duplicate (% inhibition)” value under setting [3] was 10.34%. The “Plate 1-duplicate (% conversion)” value under setting [4] came out at 46.91%.
